Where two headings read alike, the source gives them in different places.
Legend:
[1] = tested on: human venous whole blood, CD8 positive population (pERK); assay: DGK human whole blood pERK assay; assay type: cell-based
How it was run: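 Heparinized whole blood from healthy donors preincubated with compound 1 hour at 37° C. Stimulation used anti-CD3 at 1 μg/mL final plus cross-linking goat anti-mouse IgG for 15 minutes. Flow cytometry scored percentage pERK-positive cells among CD8-positive cells.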

[2] = biological target: Human DGKα(9-727) (Homo sapiens (Human), UniProt P23743); assay: biochemical; conditions: Table A, liposome (LIPGLO) assay
[3] = tested on: Human venous whole blood (IFN-γ); assay: Human whole blood IFN-γ assay; assay type: cell-based
Procedure: Assay 10: Human Whole Blood IFN-γ Assay
Human venous whole blood (22.5 μL per well), obtained from healthy donors, was pre-treated with compounds for one hour at 37° C. in a humidified 95% air/5% CO2 incubator. The blood was stimulated with 2.5 μL anti-human CD3 and anti-CD28 mAb at a final concentration of 1 μg/mL each for 24 hours at 37° C. IFN-γ in the supernatants was measured using AlphLISA kit (Cat #AL217).

[4] = biological target: human DGKζ (Homo sapiens (Human), UniProt Q13574); assay: biochemical; assay type: biochemical; conditions: Table A; liposome (LIPGLO) assay; read-out: DGKζ
[5] = Homo sapiens, human whole blood IFN-γ, read-out: INFg Whole Blood
[6] = human whole blood IFN-γ, read-out: INFg Whole Blood
[7] = Homo sapiens, CD8 positive, human whole blood pERK, read-out: DGK HWB
[8] = human whole blood pERK, read-out: DGK HWB
[9] = Homo sapiens, CD8 positive, human whole blood, CD8 positive population, anti-CD3 stimulation, top concentration 20 μM, read-out: DGK HWB (human whole blood pERK)

Human DGKα(9-727), sequence (P23743 whole entry, looked up): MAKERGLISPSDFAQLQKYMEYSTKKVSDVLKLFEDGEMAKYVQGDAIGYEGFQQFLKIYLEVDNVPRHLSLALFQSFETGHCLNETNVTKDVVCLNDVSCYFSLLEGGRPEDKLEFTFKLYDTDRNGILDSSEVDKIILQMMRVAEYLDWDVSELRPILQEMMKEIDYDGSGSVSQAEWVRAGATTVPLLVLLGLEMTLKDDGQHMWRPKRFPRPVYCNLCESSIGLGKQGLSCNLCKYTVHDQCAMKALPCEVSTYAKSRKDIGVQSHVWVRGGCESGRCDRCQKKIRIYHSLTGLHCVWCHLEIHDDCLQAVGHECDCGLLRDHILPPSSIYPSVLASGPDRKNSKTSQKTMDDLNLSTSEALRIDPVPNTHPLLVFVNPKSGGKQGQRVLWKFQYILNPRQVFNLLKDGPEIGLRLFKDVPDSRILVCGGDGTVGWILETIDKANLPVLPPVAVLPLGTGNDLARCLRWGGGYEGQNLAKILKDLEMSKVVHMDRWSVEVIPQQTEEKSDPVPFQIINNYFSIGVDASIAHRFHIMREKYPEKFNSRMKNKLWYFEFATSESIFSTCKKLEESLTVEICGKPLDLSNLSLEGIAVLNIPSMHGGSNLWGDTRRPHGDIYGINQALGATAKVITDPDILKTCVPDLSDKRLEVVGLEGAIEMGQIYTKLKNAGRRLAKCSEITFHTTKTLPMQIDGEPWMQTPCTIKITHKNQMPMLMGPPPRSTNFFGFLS
human DGKζ, sequence (Q13574 whole entry, looked up): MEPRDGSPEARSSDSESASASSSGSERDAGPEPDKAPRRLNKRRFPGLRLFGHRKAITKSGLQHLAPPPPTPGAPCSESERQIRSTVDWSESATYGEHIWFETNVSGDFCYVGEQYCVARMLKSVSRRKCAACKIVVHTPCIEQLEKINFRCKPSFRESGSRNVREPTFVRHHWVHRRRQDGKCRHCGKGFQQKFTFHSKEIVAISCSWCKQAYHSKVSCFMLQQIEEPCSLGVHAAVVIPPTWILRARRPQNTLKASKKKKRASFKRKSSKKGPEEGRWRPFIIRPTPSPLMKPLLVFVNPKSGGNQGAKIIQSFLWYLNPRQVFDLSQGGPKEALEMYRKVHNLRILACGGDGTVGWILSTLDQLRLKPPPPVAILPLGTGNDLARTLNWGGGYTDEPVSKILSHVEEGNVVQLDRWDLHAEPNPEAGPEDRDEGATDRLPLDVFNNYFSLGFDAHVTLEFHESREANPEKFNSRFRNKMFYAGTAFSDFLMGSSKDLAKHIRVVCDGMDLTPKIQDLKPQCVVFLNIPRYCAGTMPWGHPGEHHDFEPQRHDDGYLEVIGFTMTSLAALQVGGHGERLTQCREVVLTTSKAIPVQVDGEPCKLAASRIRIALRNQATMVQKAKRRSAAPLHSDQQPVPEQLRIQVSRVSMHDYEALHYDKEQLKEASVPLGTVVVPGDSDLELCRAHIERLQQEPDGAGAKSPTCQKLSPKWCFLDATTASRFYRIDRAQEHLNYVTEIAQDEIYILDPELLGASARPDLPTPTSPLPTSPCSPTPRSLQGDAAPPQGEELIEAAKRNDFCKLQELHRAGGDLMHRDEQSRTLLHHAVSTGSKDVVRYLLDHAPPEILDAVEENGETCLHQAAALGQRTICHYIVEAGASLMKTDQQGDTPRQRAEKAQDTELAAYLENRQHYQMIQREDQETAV

Compound | IC50 ([2]; read-out: DGKα) [µM] | IC50 [4] [µM] | further results
CC(C)Oc1ccc(OC2C[C@H](C)N(c3nc(=O)n(C)c4ccc(C#N)nc34)C[C@@H]2C)nc1 (mixture of isomers) [Example 246, (±)-Cis-(-4-((5-isopropoxypyridin-2-yl)oxy)-2,5-dimethylpiperidin-1-yl)-1-methyl-2-oxo-1,2-dihydropyrido[3,2-d]pyrimidine-6-carbonitrile] | 0.069 | 0.87 | EC50 ([1]; read-out: DGK HWB, human whole blood pERK): 0.83 µM; EC50 ([3]; Homo sapiens, read-out: INFg Whole Blood, human whole blood IFN-γ): 0.45 µM
Cn1c(=O)cc(N2CC[C@H](Oc3cccc(C(F)(F)F)c3)[C@@H](O)C2)c2nc(C#N)ccc21 (racemic) [Example 259, (±)-trans-8-(3-hydroxy-4-(3-(trifluoromethyl)phenoxy)piperidin-1-yl)-5-methyl-6-oxo-5,6-dihydro-1,5-naphthyridine-2-carbonitrile] | 1.1 | 150 | EC50 [3, 5]: 20 µM
Cn1c(=O)nc(N2CC[C@@H](Oc3cccc(C(F)(F)F)c3)[C@H](O)C2)c2nc(Cl)ccc21 (racemic) [Example 271, (+/−)-trans-6-chloro-4-(3-hydroxy-4-(3-(trifluoromethyl)phenoxy)piperidin-1-yl)-1-methylpyrido[3,2-d]pyrimidin-2(1H)-one] | 10 | 28 | EC50 [3, 5]: 20 µM
Cn1c(=O)nc(N2CC[C@@H](Oc3cccc(C(F)(F)F)c3)[C@H](O)C2)c2nc(Cl)ccc21 (racemic) [Example 272, (+/−)-trans-6-chloro-4-(3-hydroxy-4-(3-(trifluoromethyl)phenoxy)piperidin-1-yl)-1-methylpyrido[3,2-d]pyrimidin-2(1H)-one] | 19 | 24 | EC50 [3, 6]: 16 µM
CO[C@@H]1CN(c2cc(=O)n(C)c3ccc(C#N)nc23)CC[C@H]1Oc1cccc(C(F)(F)F)c1 (single isomer, unassigned) [Example 261, (±)-trans-8-(3-methoxy-4-(3-(trifluoromethyl)phenoxy)piperidin-1-yl)-5-methyl-6-oxo-5,6-dihydro-1,5-naphthyridine-2-carbonitrile] | 0.2 | 1.4 | EC50 [1, 7]: 1.5 µM
CC(C)Oc1ccc(O[C@H]2CCN(c3cc(=O)n(C)c4ccc(C#N)nc34)C[C@@H]2O)nc1 (single isomer, unassigned) [Example 267, (±)-trans-8-(3-hydroxy-4-((5-isopropoxypyridin-2-yl)oxy)piperidin-1-yl)-5-methyl-6-oxo-5,6-dihydro-1,5-naphthyridine-2-carbonitrile] | 0.26 | 10 | EC50 [3, 5]: 17 µM
CO[C@H]1CN(c2cc(=O)n(C)c3ccc(C#N)nc23)CC[C@@H]1Oc1ccc(OC(C)C)cn1 (single isomer, unassigned) [Example 269, (±)-trans-8-(4-((5-isopropoxypyridin-2-yl)oxy)-3-methoxypiperidin-1-yl)-5-methyl-6-oxo-5,6-dihydro-1,5-naphthyridine-2-carbonitrile] | 0.047 | 1.5 | EC50 [1, 7]: 2.1 µM
Cn1c(=O)nc(N2CC[C@@H](Oc3cccc(C(F)(F)F)c3)[C@H](O)C2)c2nc(C#N)ccc21 (single isomer, unassigned) [Example 274, (+/−)-trans-4-(3-hydroxy-4-(3-(trifluoromethyl)phenoxy)piperidin-1-yl)-1-methyl-2-oxo-1,2-dihydropyrido[3,2-d]pyrimidine-6-carbonitrile] | 14 | 15 | EC50 [3, 5]: 8.2 µM
COc1ccc(NC2C[C@H](C)N(c3cc(=O)n(C)c4ccc(C#N)nc34)C[C@H]2C)nc1 (single isomer, unassigned) [Example 280] | 0.38 | 170 | EC50 [3, 6]: 20 µM
COc1ccc(NC2C[C@H](C)N(c3cc(=O)n(C)c4ccc(C#N)nc34)C[C@H]2C)nc1 (single isomer, unassigned) [Example 281] | 2.7 | 2.8 | EC50 [3, 6]: 9.8 µM
CC1CN(c2cc(=O)n(C)c3ccc(C#N)nc23)CCC1N(C)C(=O)c1ccc(F)cc1 (single isomer, unassigned) [Example 284, N-(1-(6-Cyano-1-methyl-2-oxo-1,2-dihydro-1,5-naphthyridin-4-yl)-3-methylpiperidin-4-yl)-4-fluoro-N-methylbenzamide] | 23 | 120 | EC50 [1, 8]: 20 µM
CC1CN(c2cc(=O)n(C)c3ccc(C#N)nc23)CCC1N(C)C(=O)c1ccc(F)cc1 (single isomer, unassigned) [Example 285, N-(1-(6-Cyano-1-methyl-2-oxo-1,2-dihydro-1,5-naphthyridin-4-yl)-3-methylpiperidin-4-yl)-4-fluoro-N-methylbenzamide] | 30 | 130 | EC50 [1, 8]: 20 µM
CC1CN(c2cc(=O)n(C)c3ccc(C#N)nc23)CCC1N(C)C(=O)c1ccc(F)cc1 (single isomer, unassigned) [Example 286, N-(1-(6-Cyano-1-methyl-2-oxo-1,2-dihydro-1,5-naphthyridin-4-yl)-3-methylpiperidin-4-yl)-4-fluoro-N-methylbenzamide] | 5.2 | 9.2 | EC50 [1, 8]: 8.7 µM
C[C@H]1CN(c2cc(=O)n(C)c3ccc(C#N)nc23)[C@@H](C)CC1N(C)c1ccc(C(F)(F)F)cc1 (single isomer, unassigned) [Example 318] | 130 | – | EC50 [1, 7]: 20 µM
C[C@H]1CN(c2cc(=O)n(C)c3ccc(C#N)nc23)[C@@H](C)CC1N(C)c1ccc(C(F)(F)F)cc1 (single isomer, unassigned) [Example 319] | 61 | 130 | –
CC1CN(c2c(C#N)c(=O)n(C)c3ccc(C#N)nc23)CCC1N(C)Cc1ccc(F)cc1 (single isomer, unassigned) [Example 322, 8-(4-((4-Fluorobenzyl)(methyl)amino)-3-methylpiperidin-1-yl)-5-methyl-6-oxo-5,6-dihydro-1,5-naphthyridine-2,7-dicarbonitrile] | 6.8 | 78 | EC50 [1, 7]: 20 µM
CC1CN(c2c(C#N)c(=O)n(C)c3ccc(C#N)nc23)CCC1N(C)Cc1ccc(F)cc1 (single isomer, unassigned) [Example 323, 8-(4-((4-Fluorobenzyl)(methyl)amino)-3-methylpiperidin-1-yl)-5-methyl-6-oxo-5,6-dihydro-1,5-naphthyridine-2,7-dicarbonitrile] | 3.5 | 18 | EC50 [1, 8]: 12 µM
CC1CN(c2c(C#N)c(=O)n(C)c3ccc(C#N)nc23)CCC1N(C)Cc1ccc(F)cc1 (single isomer, unassigned) [Example 324, 8-(4-((4-Fluorobenzyl)(methyl)amino)-3-methylpiperidin-1-yl)-5-methyl-6-oxo-5,6-dihydro-1,5-naphthyridine-2,7-dicarbonitrile] | 130 | 130 | EC50 [1, 8]: 20 µM
CC1CN(c2c(C#N)c(=O)n(C)c3ccc(C#N)nc23)CCC1N(C)Cc1ccc(F)cc1 (single isomer, unassigned) [Example 325, 8-(4-((4-Fluorobenzyl)(methyl)amino)-3-methylpiperidin-1-yl)-5-methyl-6-oxo-5,6-dihydro-1,5-naphthyridine-2,7-dicarbonitrile] | 49 | 50 | EC50 [1, 8]: 20 µM
CCO[C@H]1CN(c2cc(=O)n(C)c3ccc(C#N)nc23)CC[C@H]1Oc1cccc(C(F)(F)F)c1 (single isomer, unassigned) [Example 370, cis-8-(3-Ethoxy-4-(3-(trifluoromethyl)phenoxy)piperidin-1-yl)-5-methyl-6-oxo-5,6-dihydro-1,5-naphthyridine-2-carbonitrile] | 5.1 | 5.6 | EC50 [1, 7]: 6.7 µM
CCO[C@H]1CN(c2cc(=O)n(C)c3ccc(C#N)nc23)CC[C@@H]1OCc1ccc(OC(C)C)cn1 (single isomer, unassigned) [Example 384] | – | – | EC50 [1, 9]: 4 µM; IC50 ([2]; read-out: DGKα LIPGLO IC50): 0.82 µM
CCO[C@@H]1CN(c2cc(=O)n(C)c3ccc(C#N)nc23)CC[C@H]1Oc1cccc(C(F)(F)F)c1 [Example 264, 8-((3R,4R)-3-ethoxy-4-(3-(trifluoromethyl)phenoxy)piperidin-1-yl)-5-methyl-6-oxo-5,6-dihydro-1,5-naphthyridine-2-carbonitrile] | 4 | 17 | EC50 [3, 6]: 6.5 µM
CC[C@@H]1CN(c2cc(=O)n(C)c3ccc(C#N)nc23)[C@@H](C)C[C@@H]1Oc1cccc(C(F)(F)F)c1 [Example 308, 8-((2S,4S,5R)-5-ethyl-2-methyl-4-(3-(trifluoromethyl)phenoxy)piperidin-1-yl)-5-methyl-6-oxo-5,6-dihydro-1,5-naphthyridine-2-carbonitrile] | 4.3 | 3.1 | –
CCO[C@H]1CN(c2cc(=O)n(C)c3ccc(C#N)nc23)CC[C@@H]1OCc1ccc(OC(C)C)cn1 [Example 383, 8-((3S,4S)-3-ethoxy-4-((5-isopropoxypyridin-2-yl)methoxy)piperidin-1-yl)-5-methyl-6-oxo-5,6-dihydro-1,5-naphthyridine-2-carbonitrile] | – | – | EC50 [1, 9]: 20 µM; IC50 ([2]; read-out: DGKα LIPGLO IC50): 6.1 µM

From US11964973B2 (priority 2019, dated 2024)
